Columns and labels:
[1] = tested on: T-cell; test: CD25 cell surface staining on T-cells stimulated with anti-CD3 antibody alone (Biological Example 2); assay type: cell-based, human; details: T-cell, fold change over baseline, primary human total T-cells, read-out: CD25 staining Anti-CD3 stimulation; for fold induction at 1 µM: 1 μM Cbl-b inhibitor; for fold induction at 8 µM: 8 μM Cbl-b inhibitor
[2] = target: Cbl-b (residues 36-427) (Homo sapiens, UniProt Q13191); test: Cbl-b binding assay (SPR, Biacore T200); details: 20° C., 1:1 binding model
Sequence of Cbl-b (residues 36-427) (Q13191 36-427): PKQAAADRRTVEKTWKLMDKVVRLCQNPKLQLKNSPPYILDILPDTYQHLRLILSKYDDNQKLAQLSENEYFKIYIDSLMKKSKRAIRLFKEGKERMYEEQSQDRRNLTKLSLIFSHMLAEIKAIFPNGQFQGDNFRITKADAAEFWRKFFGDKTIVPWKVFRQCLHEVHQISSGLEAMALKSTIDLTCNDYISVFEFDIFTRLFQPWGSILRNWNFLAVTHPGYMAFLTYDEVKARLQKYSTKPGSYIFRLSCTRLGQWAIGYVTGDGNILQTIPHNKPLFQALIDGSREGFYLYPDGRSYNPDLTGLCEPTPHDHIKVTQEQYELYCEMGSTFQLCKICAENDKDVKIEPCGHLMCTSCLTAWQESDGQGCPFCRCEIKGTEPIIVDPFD
Summary of the method: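 NeutrAvidin capture chip, 20° C; 50 s injections at 50 μl/min, 90-180 s dissociation; 0.3 M NaCl regeneration. Asterisked column: 50 mM NaCl buffer and 30 nM Src kinase in place of 100 mM NaCl and 60 nM Src kinase. 1:1 fit.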

[3] = target: Cbl-b (Homo sapiens, UniProt Q13191); test: Cbl-b activity assay (Cbl-b inhibition assay), TR-FRET of Cbl-b interaction with UbcH5B-Ub; assay type: biochemical; details: assay buffer with 100 mM NaCl, 60 nM Src kinase; read-out: Cbl-b activity IC50
Sequence of Cbl-b (Q13191 36-427): as above
Summary of the method: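 Compound-treated Cbl-b was incubated 1.5 h with Src kinase (60 nM final; 30 nM for asterisked values, which also used 50 mM instead of 100 mM NaCl), 1 mM ATP and 5 mM MgCl2. Binding to fluorescent Ub-loaded UbcH5B (C85K mutant) was then read by TR-FRET after 1 h more.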

[4] = tested on: T-cell; test: IL-2 secretion from T-cells co-stimulated with anti-CD3 and anti-CD28 antibody (Biological Example 2); assay type: cell-based, human; details: Homo sapiens, T-cell, fold change over baseline, primary human total T-cells, read-out: IL-2 secretion Anti-CD3/Anti-CD28 stimulation; for fold induction at 0.3 µM: 0.3 μM Cbl-b inhibitor; for fold induction at 1 µM: 1 μM Cbl-b inhibitor; for fold induction at 4 µM: 4 μM Cbl-b inhibitor
Summary of the method: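 Values are fold-change over baseline: readings (IL-2 release, CD25 staining) from inhibitor-treated T-cells divided against untreated cells […]. No detailed procedure stated.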

Row | Structure (SMILES) | fold induction at 1 µM [1] | fold induction at 8 µM [1] | Kd [2] [µM] | IC50 [3] [µM] | fold induction at 0.3 µM [4] | fold induction at 1 µM [4] | fold induction at 4 µM [4]
1 | Cc1ccc(C(=O)Nc2cc([C@H](C)Sc3nncn3C)ccn2)nc1C1CC1 [Compound 113, (S)-6-cyclopropyl-5-methyl-N-(4-(1-((4-methyl-4H-1,2,4-triazol-3-yl)thio)ethyl)pyridin-2-yl)picolinamide] | < 0.6 | < 0.6 | 1 to 3 | 0.301 to 1 | 2.51 to 5 | 2.51 to 5 | 5 to 7.5
2 | C[C@H](Sc1nncn1C)c1cccc(N2Cc3c(cccc3C(F)(F)F)C2=O)c1 [Compound 166a, (S)-2-(3-(1-((4-methyl-4H-1,2,4-triazol-3-yl)thio)ethyl)phenyl)-4-(trifluoromethyl)isoindolin-1-one] | 0.601 to 0.8 | 0.801 to 1 | 0.301 to 1 | 0.1 to 0.3 | < 1 | < 1 | 1.01 to 2.5
3 | C[C@H](Cc1nnc[nH]1)c1cccc(N2Cc3c(cccc3C(F)(F)F)C2=O)c1 [Compound 262, (R)-2-(3-(1-(4H-1,2,4-triazol-3-yl)propan-2-yl)phenyl)-4-(trifluoromethyl)isoindolin-1-one] | < 0.6 | < 0.6 | 0.301 to 1 | 0.301 to 1 | < 1 | < 1 | 1.01 to 2.5
4 | Cc1ccc(C(=O)Nc2cccc([C@H](C)Cc3nnc[nH]3)c2)nc1C1CC1 [Compound 212, (R)-N-(3-(1-(4H-1,2,4-triazol-3-yl)propan-2-yl)phenyl)-6-cyclopropyl-5-methylpicolinamide] | < 0.6 | < 0.6 | 1 to 3 | 0.301 to 1 | 1.01 to 2.5 | 1.01 to 2.5 | 1.01 to 2.5
5 | Cc1ccc(C(=O)Nc2cccc(C(C)C(F)(F)c3nncn3C)c2)nc1C1CC1 (stereo not drawn) [Compound 286, 6-cyclopropyl-N-(3-(1,1-difluoro-1-(4-methyl-4H-1,2,4-triazol-3-yl)propan-2-yl)phenyl)-5-methylpicolinamide] | 0.801 to 1 | > 1 | 0.301 to 1 | 0.1 to 0.3 | 1.01 to 2.5 | 1.01 to 2.5 | 2.51 to 5
6 | C[C@H](Cc1nncn1C)c1cccc(NC(=O)c2ccnc(C(F)(F)F)n2)c1 [Compound 187, (R)-N-(3-(1-(4-methyl-4H-1,2,4-triazol-3-yl)propan-2-yl)phenyl)-2-(trifluoromethyl)pyrimidine-4-carboxamide] | 0.801 to 1 | > 1 | 0.1 to 0.3 | 0.1 to 0.3 | 1.01 to 2.5 | 2.51 to 5 | > 7.5
7 | C[C@H](Sc1nncn1C)c1cccc(NC(=O)c2ccc(Cl)c(C(F)(F)F)n2)c1 [Compound 51, (S)-5-chloro-N-(3-(1-((4-methyl-4H-1,2,4-triazol-3-yl)thio)ethyl)phenyl)-6-(trifluoromethyl)picolinamide] | 0.801 to 1 | > 1 | 0.301 to 1 | 0.1 to 0.3 | < 1 | < 1 | 1.01 to 2.5
8 | C[C@H](Cc1nncn1C)c1cccc(NC(=O)c2cc(C(=O)N3CC[C@](C)(O)C3)ccn2)c1 [Compound 222, 4-((S)-3-hydroxy-3-methylpyrrolidine-1-carbonyl)-N-(3-((R)-1-(4-methyl-4H-1,2,4-triazol-3-yl)propan-2-yl)phenyl)picolinamide] | < 0.6 | < 0.6 | 1 to 3 | 0.301 to 1 | < 1 | < 1 | < 1
9 | Cc1ncc(C(=O)Nc2cccc([C@H](C)Sc3nncn3C)c2)nc1C1CC1 [Compound 70, (S)-6-cyclopropyl-5-methyl-N-(3-(1-((4-methyl-4H-1,2,4-triazol-3-yl)thio)ethyl)phenyl)pyrazine-2-carboxamide] | 0.801 to 1 | 0.801 to 1 | 0.301 to 1 | 0.1 to 0.3 | < 1 | 1.01 to 2.5 | 2.51 to 5
10 | Cn1cnnc1CC(C)(F)c1cccc(N2Cc3c(cccc3C(F)(F)F)C2=O)c1 (racemic) [Compound 298, 2-(3-(2-fluoro-1-(4-methyl-4H-1,2,4-triazol-3-yl)propan-2-yl)phenyl)-4-(trifluoromethyl)isoindolin-1-one] | 0.601 to 0.8 | 0.601 to 0.8 | < 0.1 | 0.1 to 0.3 | 5 to 7.5 | 5 to 7.5 | > 7.5
11 | C[C@H](Sc1nncn1C)c1cccc(NC(=O)c2cc(C(=O)N3C[C@H](O)C[C@@H]3C)ccn2)c1 [Compound 151, 4-((2S,4R)-4-hydroxy-2-methylpyrrolidine-1-carbonyl)-N-(3-((S)-1-((4-methyl-4H-1,2,4-triazol-3-yl)thio)ethyl)phenyl)picolinamide] | < 0.6 | 0.601 to 0.8 | 1 to 3 | 0.301 to 1 | > 7.5 | > 7.5 | > 7.5
12 | C[C@H](Sc1nncn1C)c1ccnc(NC(=O)c2cc(C3CC3)cc(C(F)(F)F)n2)c1 [Compound 104, (S)-4-cyclopropyl-N-(4-(1-((4-methyl-4H-1,2,4-triazol-3-yl)thio)ethyl)pyridin-2-yl)-6-(trifluoromethyl)picolinamide] | 0.601 to 0.8 | 0.801 to 1 | 1 to 3 | 0.301 to 1 | 1.01 to 2.5 | 1.01 to 2.5 | 1.01 to 2.5
13 | C[C@H](Sc1nncn1C)c1cccc(NC(=O)c2cc(C(C)(C)O)cc(C(F)(F)F)n2)c1 [Compound 85, 4-(1-hydroxy-1-methyl-ethyl)-N-[3-[(1S)-1-[(4-methyl-1,2,4-triazol-3-yl)sulfanyl]ethyl]phenyl]-6-(trifluoromethyl)pyridine-2-carboxamide] | 0.601 to 0.8 | > 1 | 0.301 to 1 | 0.1 to 0.3 | < 1 | < 1 | 1.01 to 2.5
14 | C[C@H](Sc1nncn1C)c1cccc(NC(=O)c2ccnc(C(F)(F)F)n2)c1 [Compound 75, N-[3-[(1S)-1-[(4-methyl-1,2,4-triazol-3-yl)sulfanyl]ethyl]phenyl]-2-(trifluoromethyl)pyrimidine-4-carboxamide] | 0.601 to 0.8 | 0.801 to 1 | 0.301 to 1 | 0.301 to 1 | 1.01 to 2.5 | 1.01 to 2.5 | 1.01 to 2.5
15 | C[C@H](Sc1nncn1C)c1cccc(NC(=O)c2cc(C(F)(F)F)cc(C(F)(F)F)n2)c1 [Compound 64, (S)-N-(3-(1-((4-methyl-4H-1,2,4-triazol-3-yl)thio)ethyl)phenyl)-4,6-bis(trifluoromethyl)picolinamide] | < 0.6 | 0.601 to 0.8 | 1 to 3 | 0.301 to 1 | < 1 | < 1 | 1.01 to 2.5
16 | Cn1cnnc1[C@@H]1C[C@@H]1c1cccc(N2Cc3c(cccc3C(F)(F)F)C2=O)c1 [Compound 282, 2-(3-((1S,2R)-2-(4-methyl-4H-1,2,4-triazol-3-yl)cyclopropyl)phenyl)-4-(trifluoromethyl)isoindolin-1-one] | 0.601 to 0.8 | > 1 | 0.301 to 1 | 0.301 to 1 | < 1 | 1.01 to 2.5 | 2.51 to 5
17 | C[C@H](Sc1nncn1C)c1cccc(NC(=O)c2cc(C(C)(C)O)c(Cl)cn2)c1 [Compound 55, (S)-5-chloro-4-(2-hydroxypropan-2-yl)-N-(3-(1-((4-methyl-4H-1,2,4-triazol-3-yl)thio)ethyl)phenyl)picolinamide] | < 0.6 | 0.601 to 0.8 | 1 to 3 | 0.301 to 1 | 1.01 to 2.5 | 1.01 to 2.5 | 1.01 to 2.5
18 | C[C@H](Cc1nncn1C)c1cccc(N2Cc3c(Br)cccc3C2=O)c1 [Compound 256, (R)-4-bromo-2-(3-(1-(4-methyl-4H-1,2,4-triazol-3-yl)propan-2-yl)phenyl)isoindolin-1-one] | 0.801 to 1 | 0.801 to 1 | 0.1 to 0.3 | 0.1 to 0.3 | 2.51 to 5 | 5 to 7.5 | > 7.5
